US8192962B2, “Processes for detecting toxic substances” (Daikin Industries, Ltd., priority 2001, dated 2012)

Test system: Transport facilitation protein genes
Assay: DNA chip mRNA expression in yeast, transport facilitation protein genes (Table 5)
Format: cell-based, Saccharomyces cerevisiae S288C
Protocol: Yeast (Saccharomyces cerevisiae S288C (α SUC2mal mel gap2 CUP1)) were incubated at 25° C. on YPD medium (yeast extract 1%, polypepton 2%, glucose 2%). One of toxic chemical substances was added to the cells at logarithmic growth phase, and the cells were further incubated for two hours. Cells were cultured without any chemical substance in the same condition, and were used as control. Concentrations of the chemical substances were defined to inhibit the growth of the yeast but not lead to death.
After completion of the incubation, the culture was centrifuged to collect the cells. To the cells, sodium acetate buffer (50 mM sodium acetate, 10 mM EDTA, 1% SDS) was added, and the mixture was shaken at 65° C. for five minutes, followed by returning to room temperature, and obtaining the supernatant, of which the procedures were repeated two times. To the supernatant, ½ amount of a solution of phenol/chloroform was added, and the mixture was centrifuged to give a supernatant, which was added with an equal amount of chloroform, and the mixture was centrifuged to give a supernatant. To the supernatant, an equal amount of isopropanol containing 0.3 M sodium acetate was added, and the mixture was allowed to stand at room temperature for 30 minutes, after which the mixture was centrifuged to give a sediment of the whole RNAs. Seventy % ethanol was added to the sediment, and the mixture was again centrifuged to give a sediment, which was then dried and dissolved in water. mRNA was isolated from the whole RNAs as followings. In view of the fact that a poly A chain is attached to the 3′ terminus of mRNA, a polynucleotide having a poly T structure which was immobilized on the surface of latex beads was used to trap the mRNA, and then the mRNA was washed and eluted with spine column (Oligotex-dT30<Super>mRNA Purification Kit, Takara). Reverse transcription of the mRNA was conducted with a reverse transcriptase (Super Script II Reverse Transcriptase; catalogue No. 18064-014, GibcoBRL) using fluorescence-labeled nucleotides to give cDNAs that were introduced with Cy3-dUTP or Cy5-dUTP during the reverse transcription.
The labeled cDNAs were dissolved in TE buffer (10mM Tris-HCl/1 mM EDTA, pH8.0), and the solution was dropped on the DNA chip containing the whole genes of yeast (DNA Chip Research Inc. Japan) so that the cDNAs were hybridized on the DNA chip at 65° C. for over 12 hours. The fluoresces intensity of the DNA chip was read with a scanner, and the ratio relative to the fluorescence intensity resulting from the absence of chemical substance was estimated as the following, which is shown in Tables 1 to 9: […]

Question: How did the “The level of expressed mRNA in the presence of chemical substance/The level of expressed mRNA in the absence of chemical substance” value (yeast gene YGR281W) turn out when `O=[N+]([O-])c1cc[n+]([O-])c2ccccc12` [(5), 4-nitroquinolin-N-oxide] was run?
Answer: 0.6

Question: What about the “The level of expressed mRNA in the presence of chemical substance/The level of expressed mRNA in the absence of chemical substance” value (yeast gene YHL035C) of the same compound?
Answer: 0.9

Question: And the “The level of expressed mRNA in the presence of chemical substance/The level of expressed mRNA in the absence of chemical substance” value (yeast gene YHL040C)?
Answer: 1.1

Question: What about the “The level of expressed mRNA in the presence of chemical substance/The level of expressed mRNA in the absence of chemical substance” value (yeast gene YHL047C) of the same compound?
Answer: 1.2

Question: What about the “The level of expressed mRNA in the presence of chemical substance/The level of expressed mRNA in the absence of chemical substance” value (yeast gene YHR026W) of the same compound?
Answer: 1.1

Question: And the “The level of expressed mRNA in the presence of chemical substance/The level of expressed mRNA in the absence of chemical substance” value (yeast gene YHR092C)?
Answer: 1.4

Question: What about the “The level of expressed mRNA in the presence of chemical substance/The level of expressed mRNA in the absence of chemical substance” value (yeast gene YHR094C) of the same compound?
Answer: 1.1

Question: What about the “The level of expressed mRNA in the presence of chemical substance/The level of expressed mRNA in the absence of chemical substance” value (yeast gene YHR175W) of the same compound?
Answer: 0.9

Question: And the “The level of expressed mRNA in the presence of chemical substance/The level of expressed mRNA in the absence of chemical substance” value (yeast gene YIL006W)?
Answer: 0.8

Question: What about the “The level of expressed mRNA in the presence of chemical substance/The level of expressed mRNA in the absence of chemical substance” value (yeast gene YIL022W) of the same compound?
Answer: 0.8

Question: What about the “The level of expressed mRNA in the presence of chemical substance/The level of expressed mRNA in the absence of chemical substance” value (yeast gene YIL056W) of the same compound?
Answer: 1.2

Question: And the “The level of expressed mRNA in the presence of chemical substance/The level of expressed mRNA in the absence of chemical substance” value (yeast gene YIL088C)?
Answer: 1.6

Question: What about the “The level of expressed mRNA in the presence of chemical substance/The level of expressed mRNA in the absence of chemical substance” value (yeast gene YJL034W) of the same compound?
Answer: 1.2

Question: And the “The level of expressed mRNA in the presence of chemical substance/The level of expressed mRNA in the absence of chemical substance” value (yeast gene YJL212C)?
Answer: 1.2

Question: What about the “The level of expressed mRNA in the presence of chemical substance/The level of expressed mRNA in the absence of chemical substance” value (yeast gene YJL219W) of the same compound?
Answer: 1.2

Question: What about the “The level of expressed mRNA in the presence of chemical substance/The level of expressed mRNA in the absence of chemical substance” value (yeast gene YJR077C) of the same compound?
Answer: 0.9

Question: And the “The level of expressed mRNA in the presence of chemical substance/The level of expressed mRNA in the absence of chemical substance” value (yeast gene YJR106W)?
Answer: 0.9

Question: What about the “The level of expressed mRNA in the presence of chemical substance/The level of expressed mRNA in the absence of chemical substance” value (yeast gene YJR121W) of the same compound?
Answer: 0.8

Question: And the “The level of expressed mRNA in the presence of chemical substance/The level of expressed mRNA in the absence of chemical substance” value (yeast gene YKL016C)?
Answer: 1.5

Question: What about the “The level of expressed mRNA in the presence of chemical substance/The level of expressed mRNA in the absence of chemical substance” value (yeast gene YKL146W) of the same compound?
Answer: 1.0

Question: What about the “The level of expressed mRNA in the presence of chemical substance/The level of expressed mRNA in the absence of chemical substance” value (yeast gene YKR039W) of the same compound?
Answer: 1.0

Question: And the “The level of expressed mRNA in the presence of chemical substance/The level of expressed mRNA in the absence of chemical substance” value (yeast gene YKR067W)?
Answer: 1.3

Question: And the “The level of expressed mRNA in the presence of chemical substance/The level of expressed mRNA in the absence of chemical substance” value (yeast gene YLL028W)?
Answer: 0.9

Question: What about the “The level of expressed mRNA in the presence of chemical substance/The level of expressed mRNA in the absence of chemical substance” value (yeast gene YLR081W) of the same compound?
Answer: 1.0

Question: What about the “The level of expressed mRNA in the presence of chemical substance/The level of expressed mRNA in the absence of chemical substance” value (yeast gene YLR295C) of the same compound?
Answer: 2.2

Question: What about the “The level of expressed mRNA in the presence of chemical substance/The level of expressed mRNA in the absence of chemical substance” value (yeast gene YLR348C) of the same compound?
Answer: 0.9

Question: What about the “The level of expressed mRNA in the presence of chemical substance/The level of expressed mRNA in the absence of chemical substance” value (yeast gene YLR378C) of the same compound?
Answer: 1.0

Question: And the “The level of expressed mRNA in the presence of chemical substance/The level of expressed mRNA in the absence of chemical substance” value (yeast gene YMR011W)?
Answer: 0.9

Question: And the “The level of expressed mRNA in the presence of chemical substance/The level of expressed mRNA in the absence of chemical substance” value (yeast gene YMR162C)?
Answer: 0.9

Question: What about the “The level of expressed mRNA in the presence of chemical substance/The level of expressed mRNA in the absence of chemical substance” value (yeast gene YMR203W) of the same compound?
Answer: 0.6

Question: And the “The level of expressed mRNA in the presence of chemical substance/The level of expressed mRNA in the absence of chemical substance” value (yeast gene YNL055C)?
Answer: 0.9

Question: And the “The level of expressed mRNA in the presence of chemical substance/The level of expressed mRNA in the absence of chemical substance” value (yeast gene YNL259C)?
Answer: 1.1

Question: What about the “The level of expressed mRNA in the presence of chemical substance/The level of expressed mRNA in the absence of chemical substance” value (yeast gene YNR072W) of the same compound?
Answer: 1.0

Question: And the “The level of expressed mRNA in the presence of chemical substance/The level of expressed mRNA in the absence of chemical substance” value (yeast gene YOL119C)?
Answer: 1.5

Question: And the “The level of expressed mRNA in the presence of chemical substance/The level of expressed mRNA in the absence of chemical substance” value (yeast gene YOL156W)?
Answer: 1.2

Question: What about the “The level of expressed mRNA in the presence of chemical substance/The level of expressed mRNA in the absence of chemical substance” value (yeast gene YOL163W) of the same compound?
Answer: 0.9

Question: What about the “The level of expressed mRNA in the presence of chemical substance/The level of expressed mRNA in the absence of chemical substance” value (yeast gene YOR035C) of the same compound?
Answer: 1.0

Question: What about the “The level of expressed mRNA in the presence of chemical substance/The level of expressed mRNA in the absence of chemical substance” value (yeast gene YOR130C) of the same compound?
Answer: 1.8

Question: And the “The level of expressed mRNA in the presence of chemical substance/The level of expressed mRNA in the absence of chemical substance” value (yeast gene YOR153W)?
Answer: 1.0

Question: And the “The level of expressed mRNA in the presence of chemical substance/The level of expressed mRNA in the absence of chemical substance” value (yeast gene YOR270C)?
Answer: 0.8

Question: What about the “The level of expressed mRNA in the presence of chemical substance/The level of expressed mRNA in the absence of chemical substance” value (yeast gene YOR273C) of the same compound?
Answer: 1.1

Question: And the “The level of expressed mRNA in the presence of chemical substance/The level of expressed mRNA in the absence of chemical substance” value (yeast gene YOR316C)?
Answer: 1.0

Question: What about the “The level of expressed mRNA in the presence of chemical substance/The level of expressed mRNA in the absence of chemical substance” value (yeast gene YOR328W) of the same compound?
Answer: 1.0

Question: What about the “The level of expressed mRNA in the presence of chemical substance/The level of expressed mRNA in the absence of chemical substance” value (yeast gene YOR332W) of the same compound?
Answer: 0.9

Question: What about the “The level of expressed mRNA in the presence of chemical substance/The level of expressed mRNA in the absence of chemical substance” value (yeast gene YOR348C) of the same compound?
Answer: 0.9

Question: What about the “The level of expressed mRNA in the presence of chemical substance/The level of expressed mRNA in the absence of chemical substance” value (yeast gene YPL036W) of the same compound?
Answer: 1.3

Question: And the “The level of expressed mRNA in the presence of chemical substance/The level of expressed mRNA in the absence of chemical substance” value (yeast gene YPL134C)?
Answer: 1.4

Question: And the “The level of expressed mRNA in the presence of chemical substance/The level of expressed mRNA in the absence of chemical substance” value (yeast gene YPL265W)?
Answer: 1.0

Question: And the “The level of expressed mRNA in the presence of chemical substance/The level of expressed mRNA in the absence of chemical substance” value (yeast gene YPL271W)?
Answer: 1.4

Question: What about the “The level of expressed mRNA in the presence of chemical substance/The level of expressed mRNA in the absence of chemical substance” value (yeast gene YPR124W) of the same compound?
Answer: 2.0

Question: And the “The level of expressed mRNA in the presence of chemical substance/The level of expressed mRNA in the absence of chemical substance” value (yeast gene YPR192W)?
Answer: 1.2

Question: And the “The level of expressed mRNA in the presence of chemical substance/The level of expressed mRNA in the absence of chemical substance” value (yeast gene YPR194C)?
Answer: 1.3
